Laboratory results: article PMC7856678 (Bioorganic & medicinal chemistry, 2021)

Assays:
TZM-bl/Molt-HIV-1ADA = test: Cell-to-Cell HIV-1 transmission, CCR5-tropic assay; type: cell-based; conditions: Human immunodeficiency virus 1, TZM-bl
TZM-bl/H9-HIV-1IIIB = test: Cell-to-Cell HIV-1 transmission, CXCR4-tropic assay; type: cell-based; conditions: Human immunodeficiency virus 1, TZM-bl
Cytotoxicity [1] = type: cell-based; conditions: human, TZM-bl cells
VSV-G pseudovirus = test: microbe, parasite or virus in culture; type: cell-based
Cytotoxicity [2] = type: cell-based; conditions: human, U87-CD4-CXCR4 cells
[3] = Solubility of compounds for antiviral/cytotoxicity testing; type: physicochemical; conditions: assays could not be performed
TZM-bl cells = conditions: cited from earlier work
U87-CD4-CXCR4 cells = conditions: cells of VSV-G assay; cited from earlier work

## COc1cnc(-n2cnc(C)n2)c2[nH]cc(C(=O)C(=O)N3CCN(C(=O)c4ccccc4)CC3)c12 [BMS-626529]
TZM-bl/Molt-HIV-1ADA
  IC50: ~0.2 µM
TZM-bl/H9-HIV-1IIIB
  IC50: 0.02 ± 0.005 µM

## N#Cc1ccc(-c2ccc(C(=O)N[C@@H](CN)c3nc(CO)cs3)[nH]2)cc1 [Compound 4, N-(2-Amino-1-(4-(hydroxymethyl)thiazol-2-yl)ethyl)-5-(4-cyanophenyl)-1H-pyrrole-2-carboxamide]
Cytotoxicity [1]
  CC50 at 3 days: > 82 µM

## NC[C@H](NC(=O)c1ccc(-c2cc(F)c(Cl)c(F)c2)[nH]1)c1nc(CCO)cs1 [Compound 9, N-(2-Amino-1-(4-(2-hydroxyethyl)thiazol-2-yl)ethyl)-5-(4-chloro-3,5-difluorophenyl)-1H-pyrrole-2-carboxamide]
Cytotoxicity [1]
  CC50 at 72 h: 32.8 ± 1 µM

## NC[C@H](NC(=O)c1ccc(-c2ccc(C(F)(F)F)cc2F)[nH]1)c1nc(CCO)cs1 [Compound 13, N-(2-Amino-1-(4-(2-hydroxyethyl)thiazol-2-yl)ethyl)-5-(2-fluoro-4-(trifluoromethyl)phenyl)-1H-pyrrole-2-carboxamide]
VSV-G pseudovirus
  IC50: 11.9 ± 0.5 µM
Cytotoxicity [2]
  CC50 at 3 days: 33.5 ± 0.6 µM

## NC[C@H](NC(=O)c1ccc(-c2ccc(C(F)(F)F)c(F)c2)[nH]1)c1nc(C(=O)O)cs1 [Compound 21, 2-[2-Amino-1-[[5-[3-fluoro-4-(trifluoromethyl)phenyl]-1H-pyrrole-2-carbonyl]amino]ethyl]thiazole-4-carboxylic acid]
[3]
  Solubility: Not soluble

## NC[C@@H](NC(=O)c1ccc(-c2ccc(C(F)(F)F)c(F)c2)[nH]1)c1nc(C(=O)O)cs1 [Compound 22, 2-[2-Amino-1-[[5-[3-fluoro-4-(trifluoromethyl)phenyl]-1H-pyrrole-2-carbonyl]amino]ethyl]thiazole-4-carboxylic acid]
[3]
  Solubility: Not soluble

## NC[C@@H](NC(=O)c1ccc(-c2ccc(C(F)(F)F)cc2)[nH]1)c1ncc(CO)s1 [NBD-14136]
TZM-bl cells
  CC50: 42.4 ± 1 µM
U87-CD4-CXCR4 cells
  CC50: 46.3 ± 10.6 µM
